The NIST ThermoML archive (doi:10.1021/je700339f)
± gives the expanded uncertainty stated by the source.

Assay: xn = mol fraction of the nth substance listed
Settings: 298.15 K, Liquid

ClCCCl [1,2-dichloroethane] + CN(C)C=O
mass density [kg/m3]
Settings | x2 = 0.0805 | x2 = 0.1978 | x2 = 0.302 | x2 = 0.397 | x2 = 0.4988 | x2 = 0.6023 | x2 = 0.7054 | x2 = 0.8005 | x2 = 0.9071
100 kPa | 1221.2 ± 6 | 1186.2 ± 6 | 1154.9 ± 6 | 1126.5 ± 6 | 1095.7 ± 6.1 | 1064.5 ± 6 | 1033.6 ± 6 | 1005.2 ± 6 | 972.8 ± 6.1
500 kPa | 1221.5 ± 6 | 1186.6 ± 6 | 1155.2 ± 6 | 1126.8 ± 6 | 1096 ± 6.1 | 1064.8 ± 6 | 1033.9 ± 6 | 1005.5 ± 6 | 973.1 ± 6.1
1000 kPa | 1222 ± 6 | 1187 ± 6 | 1155.7 ± 6 | 1127.2 ± 6 | 1096.4 ± 6.3 | 1062.2 ± 6 | 1034.3 ± 5.7 | 1005.8 ± 6.1 | 973.3 ± 6.1
1500 kPa | 1222.5 ± 6 | 1187.5 ± 6 | 1156.2 ± 6 | 1127.6 ± 6.1 | 1096.8 ± 6.1 | 1065.6 ± 6 | 1034.7 ± 6 | 1006.2 ± 6.1 | 973.7 ± 6.1
2000 kPa | 1223 ± 6 | 1188 ± 6 | 1156.6 ± 6 | 1128 ± 6.1 | 1097.2 ± 6.1 | 1065.9 ± 6 | 1035 ± 6 | 1006.5 ± 6.1 | 974 ± 6.1
2500 kPa | 1223.4 ± 6 | 1188.4 ± 6 | 1156.9 ± 6 | 1128.4 ± 6 | 1097.6 ± 6.1 | 1066.4 ± 6 | 1035.4 ± 6 | 1006.9 ± 6.1 | 974.3 ± 6.1
3000 kPa | 1223.9 ± 6 | 1188.8 ± 6 | 1157.4 ± 6.1 | 1128.8 ± 6.1 | 1098 ± 6.1 | 1066.7 ± 6 | 1035.7 ± 6 | 1007.2 ± 6.1 | 974.6 ± 6.1
3500 kPa | 1224.3 ± 6 | 1189.3 ± 6 | 1157.8 ± 6.1 | 1129.3 ± 6.1 | 1098.3 ± 6.1 | 1067 ± 6 | 1036.1 ± 6 | 1007.6 ± 6.1 | 974.9 ± 6.1
4000 kPa | 1224.8 ± 6 | 1189.7 ± 6 | 1158.2 ± 6.1 | 1129.6 ± 6.1 | 1098.7 ± 6.1 | 1067.4 ± 6 | 1036.4 ± 6 | 1007.9 ± 6.1 | 975.2 ± 6.1
4500 kPa | 1225.3 ± 6 | 1190.1 ± 6.1 | 1158.6 ± 6.1 | 1130.1 ± 6.1 | 1099.2 ± 6.1 | 1067.8 ± 6.1 | 1036.7 ± 6 | 1008.2 ± 6.1 | 975.5 ± 6.1
5000 kPa | 1225.8 ± 6 | 1190.6 ± 6.1 | 1159.1 ± 6.1 | 1130.4 ± 6.1 | 1099.5 ± 6.1 | 1068.2 ± 6.1 | 1037.1 ± 6 | 1008.5 ± 6.1 | 975.9 ± 6.1
5500 kPa | 1226.3 ± 6.1 | 1191 ± 6.1 | 1159.5 ± 6.1 | 1130.9 ± 6.1 | 1099.8 ± 6.1 | 1068.5 ± 6.1 | 1037.4 ± 6 | 1008.9 ± 6.1 | 976.2 ± 6.1
6000 kPa | 1226.7 ± 6.1 | 1191.5 ± 6.1 | 1159.9 ± 6.1 | 1131.4 ± 6.1 | 1100.2 ± 6.1 | 1068.8 ± 6.1 | 1037.7 ± 6 | 1009.2 ± 6.1 | 976.5 ± 6.1
6500 kPa | 1227.1 ± 6.1 | 1191.9 ± 6.1 | 1160.3 ± 6.1 | 1131.6 ± 6.1 | 1100.6 ± 6.1 | 1069.3 ± 6.1 | 1038.1 ± 6 | 1009.5 ± 6.1 | 976.8 ± 6.1
7000 kPa | 1227.6 ± 6.1 | 1192.3 ± 6.1 | 1160.8 ± 6.1 | 1132.1 ± 6.1 | 1101 ± 6.1 | 1069.6 ± 6.1 | 1038.5 ± 6 | 1009.8 ± 6.1 | 977.1 ± 6.1
7500 kPa | 1228 ± 6.1 | 1192.7 ± 6.1 | 1161.2 ± 6.1 | 1132.5 ± 6.1 | 1101.4 ± 6.1 | 1070 ± 6.1 | 1038.8 ± 6 | 1010.2 ± 6.1 | 977.4 ± 6.2
8000 kPa | 1228.5 ± 6.1 | 1193.2 ± 6.1 | 1161.6 ± 6.1 | 1132.8 ± 6.1 | 1101.8 ± 6.1 | 1070.3 ± 6.1 | 1039.2 ± 6 | 1010.5 ± 6.1 | 977.8 ± 6.1
8500 kPa | 1228.9 ± 6.1 | 1193.7 ± 6.1 | 1161.9 ± 6.1 | 1133.2 ± 6.1 | 1102.1 ± 6.1 | 1070.7 ± 6.1 | 1039.5 ± 6.1 | 1010.8 ± 6.1 | 978.2 ± 6.1
9000 kPa | 1229.3 ± 6.1 | 1194 ± 6.1 | 1162.4 ± 6.1 | 1133.7 ± 6.1 | 1102.5 ± 6.1 | 1071.1 ± 6.1 | 1039.9 ± 6.1 | 1011.2 ± 6.1 | 978.4 ± 6.2
9500 kPa | 1229.8 ± 6.1 | 1194.5 ± 6.1 | 1162.8 ± 6.1 | 1134 ± 6.1 | 1102.9 ± 6.1 | 1071.4 ± 6.1 | 1040.2 ± 6.1 | 1011.5 ± 6.1 | 978.7 ± 6.2
9900 kPa | – | – | – | – | – | – | – | 1011.8 ± 6.1 | –
10000 kPa | 1230.4 ± 6.1 | 1195 ± 6.1 | 1163.2 ± 6.1 | 1134.5 ± 6.1 | 1103.3 ± 6.1 | 1071.8 ± 6.1 | 1040.6 ± 6.1 | – | 979.1 ± 2
10500 kPa | 1230.8 ± 6.1 | 1195.4 ± 6.1 | 1163.6 ± 6.1 | 1134.9 ± 6.1 | 1103.7 ± 6.1 | 1072.2 ± 6.1 | 1040.9 ± 6.1 | 1012.2 ± 6.1 | 979.4 ± 6.2
11000 kPa | 1231.2 ± 6.1 | 1195.8 ± 6.1 | 1164.1 ± 6.1 | 1135.3 ± 6.1 | 1104 ± 6.1 | 1072.5 ± 6.1 | 1041.2 ± 6.1 | 1012.4 ± 6.1 | 979.7 ± 6.1
11400 kPa | – | – | 1164.4 ± 6.1 | – | – | – | – | – | –
11500 kPa | 1231.7 ± 6.1 | 1196.2 ± 6.1 | – | 1135.7 ± 6.1 | 1104.4 ± 6.1 | 1072.9 ± 6.1 | 1041.6 ± 6.1 | 1012.8 ± 6.1 | 980 ± 6.2
11900 kPa | – | – | – | 1136 ± 6.1 | – | – | 1041.9 ± 6.1 | – | –
12000 kPa | 1232.2 ± 6.1 | 1196.7 ± 6.1 | 1164.9 ± 6.1 | – | 1104.8 ± 6.2 | 1073.2 ± 6.1 | – | 1013.2 ± 6.1 | 980.3 ± 6.2
12400 kPa | – | – | 1165.2 ± 6.1 | – | – | – | 1042.2 ± 6.1 | – | 980.5 ± 6.2
12500 kPa | 1232.6 ± 6.1 | 1197.1 ± 6.1 | – | 1136.5 ± 6.1 | 1105.2 ± 6.2 | 1073.5 ± 6.1 | – | 1013.5 ± 6.1 | –
12900 kPa | – | – | – | 1136.8 ± 6.1 | – | – | – | – | –
13000 kPa | 1233.1 ± 6.2 | 1197.4 ± 6.2 | 1165.6 ± 6.1 | – | 1105.6 ± 6.2 | 1073.9 ± 6.1 | 1042.6 ± 6.1 | 1013.8 ± 6.1 | 980.9 ± 6.2
13400 kPa | 1233.4 ± 6.2 | – | – | – | – | – | – | – | –
13500 kPa | – | 1197.9 ± 6.2 | 1166 ± 6.1 | 1137.3 ± 6.2 | 1105.9 ± 6.2 | 1074.2 ± 6.1 | 1042.9 ± 6.1 | 1014.1 ± 6.1 | 981.2 ± 6.2
13900 kPa | – | – | – | – | – | 1074.6 ± 6.1 | – | – | –
14000 kPa | 1233.9 ± 6.2 | 1198.3 ± 6.2 | 1166.4 ± 6.2 | 1137.6 ± 6.2 | 1106.2 ± 6.2 | – | 1043.2 ± 6.1 | 1014.4 ± 6.1 | 981.5 ± 6.2
14500 kPa | 1234.3 ± 6.2 | 1198.8 ± 6.2 | 1166.8 ± 6.2 | 1137.9 ± 6.2 | 1106.6 ± 6.2 | 1074.9 ± 6.1 | 1043.5 ± 6.1 | 1014.7 ± 6.1 | 981.8 ± 6.2
14900 kPa | – | – | – | 1138.2 ± 6.2 | – | – | 1043.8 ± 6.1 | – | –
15000 kPa | 1234.7 ± 6.2 | 1199.1 ± 6.2 | 1167.2 ± 6.2 | – | 1107 ± 6.2 | 1075.2 ± 6.1 | – | 1015 ± 6.1 | 982.1 ± 6.2
15400 kPa | – | – | – | – | – | – | – | – | 982.3 ± 6.2
15500 kPa | 1235.2 ± 6.2 | 1199.6 ± 6.2 | 1167.6 ± 6.2 | 1138.7 ± 6.2 | 1107.3 ± 6.2 | 1075.6 ± 6.1 | 1044.2 ± 6.1 | 1015.3 ± 6.1 | –
15900 kPa | – | 1199.9 ± 6.2 | – | – | – | – | – | – | –
16000 kPa | 1235.6 ± 2.7 | – | 1168 ± 6.2 | 1139 ± 6.2 | 1107.7 ± 6.2 | 1075.9 ± 6.1 | 1044.5 ± 6.1 | 1015.7 ± 6.2 | 982.6 ± 6.2
16400 kPa | – | 1200.3 ± 6.2 | – | – | – | – | – | 1015.9 ± 6.1 | –
16500 kPa | 1236 ± 2.7 | – | 1168.4 ± 6.2 | 1139.4 ± 6.2 | 1108 ± 6.2 | 1076.2 ± 6.1 | 1044.8 ± 6.1 | – | 983 ± 2
16900 kPa | – | – | – | 1139.7 ± 6.2 | – | – | – | – | –
17000 kPa | 1236.4 ± 6.2 | 1200.7 ± 6.2 | 1168.7 ± 6.2 | – | 1108.4 ± 6.2 | 1076.6 ± 6.2 | 1045.1 ± 6.1 | 1016.3 ± 6.2 | 983.2 ± 6.2
17500 kPa | 1236.8 ± 6.2 | 1201.1 ± 6.2 | 1169.1 ± 6.2 | 1140.1 ± 6.2 | 1108.7 ± 6.2 | 1076.9 ± 6.2 | 1045.4 ± 6.1 | 1016.6 ± 6.2 | 983.5 ± 6.2
17900 kPa | – | – | – | – | – | – | – | 1016.9 ± 6.2 | –
18000 kPa | 1237.2 ± 6.2 | 1201.5 ± 6.2 | 1169.5 ± 6.2 | 1140.5 ± 6.2 | 1109 ± 6.2 | 1077.3 ± 6.2 | 1045.7 ± 6.1 | – | 983.8 ± 2
18400 kPa | – | – | – | – | – | 1077.6 ± 6.2 | – | – | –
18500 kPa | 1237.7 ± 6.2 | 1201.9 ± 6.2 | 1169.9 ± 6.2 | 1140.8 ± 6.2 | 1109.4 ± 6.2 | – | 1046.1 ± 6.1 | 1017.2 ± 6.2 | 984.1 ± 6.2
19000 kPa | 1238.2 ± 6.2 | 1202.4 ± 6.2 | 1170.2 ± 6.2 | 1141.2 ± 6.2 | 1109.9 ± 6.2 | 1078 ± 6.2 | 1046.4 ± 6.1 | 1017.5 ± 6.2 | 984.4 ± 6.2
19500 kPa | 1238.6 ± 6.3 | 1202.7 ± 6.2 | 1170.6 ± 6.2 | 1141.6 ± 6.2 | 1110.2 ± 6.2 | 1078.3 ± 6.2 | 1046.7 ± 6.1 | 1017.8 ± 6.2 | 984.7 ± 6.2
20000 kPa | 1239 ± 6.3 | 1203.1 ± 6.2 | 1171.1 ± 6.2 | 1142.1 ± 6.2 | 1110.6 ± 6.2 | 1078.6 ± 6.2 | 1047.08 ± 6.1 | 1018.2 ± 6.2 | 985.1 ± 6.2
